Data taken from patent publication US20170239253A1, “COMPOSITIONS AND METHODS FOR THE REDUCTION OR PREVENTION OF NON-ALCOHOLIC STEATOHEPATITIS (NASH)” (NuSirt Sciences, Inc., priority 2015, published 2017).

Key:
[1] = 25 mg icariin/kg diet; corresponding to 4 mg/kg body weight/day; cited from earlier work
[2] = system: C57Bl/6 mice on high fat diet (HFD); assay: Liver weight after six weeks treatment in chronic high fat diet model of hepatic steatosis; type: in vivo
Text: (§1) Chronic high fat diet was used in C57Bl/6 mice as an experimental model of hepatic steatosis. Male C57/BL6 mice were either maintained on standard low-fat diet (control; LFD; 10% energy from fat) or placed on a high fat (HFD; 60% energy from fat, Research Diets #D12492, Research Diets, Inc., New Brunswick, N.J.) at six weeks of age to induce obesity and fatty infiltration of the liver. […] Animals fed with LFD have normal cellular structure in liver cells. […] Animals were then randomized to treatments for an additional six weeks, with 10 animals per group, as specified in the following examples.
(§2) The 1.5 g/kg diet of metformin corresponds to a therapeutically effective dose of metformin in humans.
(§3) Following induction of hepatic steatosis as described in Example 1, animals were treated for six weeks according to the following treatment groups as depicted in Table 22:
(§4) In this study, the effects of metformin alone (therapeutic dose) vs. combination therapy with sub-therapeutic amounts of metformin and HMB on liver weight and hepatic lipid accumulation were assessed. Following induction of hepatic steatosis as described in Example 1, animals were treated for six weeks according to the following treatment groups as depicted in Table 23:

[3] = system: C57Bl/6 mice on high fat diet (HFD); assay: Prophylactic treatment concurrent with high fat diet: liver mass and hepatic lipid accumulation; type: in vivo; conditions: six weeks, metformin alone 1.5 g/kg
Procedure: In this study, the prophylactic effects of metformin alone, and various combinations of metformin, leucine, and resveratrol on liver mass and hepatic steatosis are assessed. C57Bl/6 mice are assigned to the following experimental groups as depicted in Table 25: Drug treatments and high fat diet feeding (as described in Example 1) are initiated on the same day and are carried out for six weeks. The effects of the treatments and diet on liver mass and hepatic lipid accumulation are assessed as described in the preceding examples. […] In this study, the prophylactic effects of metformin alone, and various combinations of metformin, HMB, and resveratrol on liver mass and hepatic steatosis are assessed. C57Bl/6 mice are assigned to the following experimental groups as depicted in Table 26: Drug treatments and high fat diet feeding (as described in Example 1) are initiated on the same day and are carried out for six weeks. The effects of the treatments and diet on liver mass and hepatic lipid accumulation are assessed as described in the preceding examples. […] In this study, the prophylactic effects of sub-therapeutic leucine alone, and co-administration of leucine and the PDE5-specific inhibitor icariin on liver mass and hepatic steatosis are assessed. […] The effects of the treatments and diet on liver mass and hepatic lipid accumulation are assessed as described in the preceding examples.

[4] = system: C57Bl/6 mice on high fat diet (HFD); conditions: Example 3; metformin alone 1.5 g/kg diet; leucine 24 g/kg + metformin 0.5 g/kg
Text: Chronic high fat diet was used in C57Bl/6 mice as an experimental model of hepatic steatosis. Male C57/BL6 mice were either maintained on standard low-fat diet (control; LFD; 10% energy from fat) or placed on a high fat (HFD; 60% energy from fat, Research Diets #D12492, Research Diets, Inc., New Brunswick, N.J.) at six weeks of age to induce obesity and fatty infiltration of the liver. […] Animals were then randomized to treatments for an additional six weeks, with 10 animals per group, as specified in the following examples.
In this study, the effects of metformin alone (therapeutic dose) vs. combination therapy with sub-therapeutic amounts of metformin and leucine on liver weight and hepatic lipid accumulation were assessed.

[5] = system: C57Bl/6 mice on high fat diet (HFD); assay: Histological analysis of hepatic lipid accumulation (hepatic steatosis), high fat diet model
Text: as §1, §2, §3, §4

## COc1ccc(-c2oc3c(CC=C(C)C)c(O[C@@H]4O[C@H](CO)[C@@H](O)[C@H](O)[C@H]4O)cc(O)c3c(=O)c2O[C@@H]2O[C@@H](C)[C@H](O)[C@@H](O)[C@H]2O)cc1 [icariin]
[1]
  effect on liver mass or hepatic lipid accumulation: no effect

## metformin
[2]; Example 2, metformin alone 1.5 g/kg diet, leucine 24 g/kg diet, resveratrol 12.5 mg/kg diet
  effect on liver weight: partially reverse the effect of high fat diet on liver weight
[2]; Example 3, metformin alone 1.5 g/kg diet, leucine 24 g/kg + metformin 0.25 and 0.5 g/kg, p<0.02 vs. HFD
  effect on liver weight: reversed the effect of high fat diet on liver weight back to control levels
[2]; Example 4, metformin alone 1.5 g/kg diet, CaHMB 2 g/kg diet + metformin 0.25 and 0.5 g/kg, p<0.03
  effect on liver weight: reversed the effect of high fat diet on liver weight back to control levels
[3]; Example 6, treatment and HFD started same day, leucine 24 g/kg + metformin 0.15-0.50 g/kg ± resveratrol 12.5 mg/kg diet
  HFD-induced increase in liver mass and hepatic lipid accumulation (prophylactic): attenuates the HFD-induced increase in liver mass and hepatic lipid accumulation
[3]; Example 7, CaHMB 2 g/kg + metformin 0.15-0.50 g/kg ± resveratrol 12.5 mg/kg diet
  HFD-induced increase in liver mass and hepatic lipid accumulation (prophylactic): attenuates the HFD-induced increase in liver mass and hepatic lipid accumulation
[4]
  effect on liver triglycerides: partially reversed the effect of high fat diet on liver triglycerides
[5]; Example 2, HFD mice, six weeks, metformin alone at therapeutic dosage, combinations at sub-therapeutic dosages
  hepatic steatosis (histology): partial reversal of the effects of HFD on hepatic steatosis
[5]; Example 3, metformin alone therapeutic, leucine + metformin 0.5 g/kg
  hepatic steatosis (histology): partially reversed hepatic steatosis
